This note sets out measurements from patent US12447171B2 (CELGENE QUANTICEL RESEARCH, INC., priority 2019, dated 2025).

Broadly, the EC50 is the concentration giving half of the maximal effect.

The subject of assay [1] is BaF-FLT3(WT). In words: Cell viability assay (Cell Titer-Glo), BaF3 cells expressing FLT3. It counts as cell-based. The note with it: Mus musculus. (In general: Cellular ATP, detected with luciferase, serves as a proxy for viable cell number.)
The subject of assay [2] is BaF-FLT3-ITD. The assay is described as above. It counts as cell-based. Particulars: Mus musculus.
For assay [3], the system named is BaF-FLT3(D835Y). The description is as above. It counts as cell-based. Particulars: Mus musculus.
Assay [4] concerns MCL-1. Nature of the assay: Western blot of MCL-1 in AML cell lines. It counts as cell-based. How it is done: Lysates were quantified using a bicinchoninic acid (BCA) kit (Piece/Thermo Fisher, Waltham, MA). 20 to 30 μg protein was resolved on a 4-12% SDS-PAGE gel, transferred to PVDF membranes (80V/90 minute by wet-transfer), and blocked with Oddysey TBS blocking buffer for 1 hour and then probed with appropriate primary antibodies overnight at 4° C. using dilution as recommended by manufacturer. Membranes were washed three times for a total of 30 minutes and then incubated with secondary antibodies at room temperature in the dark for 1 hour. After another three washes, Odyssey infrared imaging system and companion software (LI-COR biosciences, Lincoln, NE, USA) were used to scan immunoblot membranes and to quantify band intensity according to the manufacturer's instructions. The ratio of proteins of interest to loading control in treated samples was normalized to the corresponding ratio in untreated cells. Antibodies used for immunoblotting were purchased from the following sources: BCL-2 (sc-7382), MCL1- (sc-819) from Santa Cruz Biotechnology (Dallas, TX, USA, Bim (2819), caspase-3 (9664) from Cell Signaling Technology; beta-Actin (A2228) from Sigma-Aldrich; DNMTI (ab188453) from AbCam; TRDye 680 goat anti-rabbit and IRDye 800 goat anti-mouse secondary antibodies (#925-68073 and #925-32212) were purchased from Li-COR Biosciences (Lincoln, NE).
(In general: In western blotting, separated proteins are transferred to a membrane and probed.)

The subject of assay [5] is MOLM-13 xenograft model. In words: Disseminated MOLM-13 xenograft survival study. It counts as in vivo, mice. Particulars: for Median survival: MOLM-13, NOD/SCID mice, vehicle=19 days; for survival compared to vehicle alone: MOLM-13. As to the method: LEED models oral administration of AZA, while HELD models intravenous or subcutaneous administration of AZA.
The animals were fed ad libitum water (reverse osmosis, 1 ppm Cl), and NIH 31 Modified and Irradiated Lab Diet® consisting of 18.0% crude protein, 5.0% crude fat, and 5.0% crude fiber. The mice were housed on irradiated Enrich-o'cobs™ Laboratory Animal Bedding in static microisolators on a 12-hour light cycle at 20-22° C. (68-72° F.) and 40-60% humidity.
On each day of dosing, an appropriate amount of gilteritinib was dissolved in 0.5% methylcellulose in DI water to yield a dosing solution at 0.4 mg/mL. Each week, an appropriate amount of venetoclax was dissolved in 10% ethanol:30% PEG400:60% phosal 50 propylene glycol to yield a dosing solution at 10 mg/mL. […] Each test mouse received 5×10^6 MOLM-13 cells or 10^7 MV4-11 cells (0.2 mL cell suspension) by tail vein injection. Dosing was initiated three days after tumor cell inoculation, which was designated as Day 1 of the study. NOD/SCID mice (n=9-12/group) were randomized according to body weight and dosed. […] Vehicle was administered both IP and PO. The dosing volume for all treatments was 10 mL/kg, scaled to the weight of each individual animal.
Animals were monitored individually for an endpoint of moribundity due to progression of the leukemia. Full hind limb paralysis, severe ocular proptosis, or moribundity was considered sufficient for euthanasia due to tumor progression. Moribund animals were defined as sick animals unable to reach food and water. These deaths were classified as death on survival study. The time to endpoint (TTE), in days, was recorded for each mouse that died of its disease or was euthanized due to extensive tumor progression. […] An animal classified as having died from treatment-related (TR) causes was assigned a TTE value equal to the day of death. An animal classified as having died from non-treatment-related (NTR) causes, or used for sampling before endpoint, was excluded from TTE calculations and all further analyses. The median TTE value was calculated for each group. The median TTE of treated mice was expressed as a percentage of the median TTE of the control mice (% T/C), and the increase in life span (ILS) was calculated as: ILS=% T/C−100%, where T=median TTE treated, and C=median TTE control. Thus, if T=C, ILS=0%.
Animals were weighed daily on Days 1-5, then twice per week until the completion of the study. […] Individual body weight loss was monitored as per protocol and any animal that exceeded the limits for acceptable body weight loss was euthanized. Group mean body weight loss also was monitored as per protocol. Dosing was suspended in any group that exceeded the limits for acceptable mean body weight loss. If mean body weight recovered, then dosing may be resumed in that group, but at a lower dosage or less frequent dosing schedule. Acceptable toxicity for the maximum tolerated dose was defined as a group mean body-weight loss of less than 20% during the study and not more than one TR death among ten treated animals. […] A death was classified as NTR if there was no evidence that death was related to treatment side effects or tumor progression. Non-treatment-related deaths may be further characterized based on cause of death. A death may be classified as NTRa if it resulted from an accident or human error. A death may be classified as NTRu if the cause of death is unknown and there is no available evidence of death related to treatment side effects, metastasis, accident or human error, although death due to these etiologies cannot be excluded. Survival was analyzed by the Kaplan-Meier method, based on TTE values. The logrank (Mantel-Cox) and Gehan-Breslow-Wilcoxon tests determined the significance of the difference between the overall survival experiences (survival curves) of two groups, based on TTE values.
These experiments were repeated with a second FLT3-ITD cell line, MOLM-13.

The structures appear in SMILES notation.

Take `Nc1ncn([C@@H]2O[C@H](CO)[C@@H](O)[C@H]2O)c(=O)n1` [5-azacytidine, 4-amino-1-B-D-ribofuranosyl-1,3,5-triazin-2(1H)-one]: the EC50 in assay [1] is 189 nM; in assay [2] it was 598 nM; in assay [3] it was 456 nM. Further, the “start of MCL-1 degradation after treatment” value stood at 6 h in assay [4] (KG1α), 6 h in assay [4] (MV4-11) and 16 h in assay [4] (THP-1). Moreover, the MCL-1 degradation entry in assay [4] (OCI-AML2) was “did not lead to any degradation of MCL-1”. The “extent of MCL-1 degradation” value in assay [4] (THP-1, by 24 hours) is on record as “incomplete degradation by 24 hours”. The Median survival in assay [5] (HELD 5-azacytidine 3 mg/kg IP qd×5, alone or with midostaurin 100, gilteritinib 4 or venetoclax 100 mg/kg PO qd×21) came out at 32 days; in assay [5] (LEED 5-azacytidine 1 mg/kg IP qd×15, alone or with midostaurin 100, gilteritinib 4 or venetoclax 100 mg/kg PO qd×21), 36 days. Besides, the “survival compared to vehicle alone” value in assay [5] (HELD 5-azacytidine 3 mg/kg IP qd×5, alone or in combination) is given as “statistically significantly increases in survival”; in assay [5] (LEED 5-azacytidine 1 mg/kg IP qd×15, alone or in combination), “statistically significantly increases in survival”.
